Data from US8835644B2, “Broad spectrum benzothiophene-nitrothiazolide and other antimicrobials” (University of Virginia Patent Foundation, priority 2009, dated 2014).
Values after ≈ are worked out from the molar mass of the structure shown. Read-outs that look alike come from different tables or passages of the source.

Assays:
MRSA = assay: MIC testing by broth dilution, MRSA; assay type: cell-based, Staphylococcus aureus
Procedure: (§1) A standard broth dilution protocol was used in 96 well microplates containing a standard dilution of the microorganism to be tested in 100 microliters of the appropriate medium. Appropriate medium: E. coli, LB medium; Staphylococcus strains, Trypticase Soy; and for H. pylori and C. jejuni, Brain Heart Infusion. The compounds to be tested were set at 32 μg/ml in 200 microliters in well one and then serially diluted to provide a range from 32 to 0.06. The wells were scored visually at 24 h. The well where there was no growth was recorded as the MIC. Clostridium difficile was tested by agar diffusion and disk diffusion (Kirby Bower) methods under anaerobic conditions on Wilkins Chalgrin agar. In these assays, zone of inhibited growth was measured and compared by relative ratio to the zone recorded for NTZ.
(§2) Representative compounds of the invention were tested in a series of assays against a series of organisms as described above. […] The organisms tested include, C. difficile, H. pylori, C. jejuni, MRSA, S. epidermidis, and E. coli. S. epidermidis and E. coli were tested in the plank and biofilm assay. A disk diffusion assay was also used for C. difficile. Direct PFOR enzyme assays were also performed. All analogues and derivatives were not tested on every organism in every type of assay (the “-” in each table means that it was not tested).

E. coli = assay: MIC testing by broth dilution, E. coli plank; assay type: cell-based, Escherichia coli
Procedure: as §1, §2

C. jejuni = assay: MIC testing by broth dilution, C. jejuni; assay type: cell-based, Campylobacter jejuni
Procedure: as §1, §2

H. pylori = assay: MIC testing by broth dilution, H. pylori; assay type: cell-based, Helicobacter pylori
Procedure: as §1, §2

S. epidermidis = assay: MIC testing by broth dilution, S. epidermidis plank; assay type: cell-based, Staphylococcus epidermidis
Procedure: as §1, §2

[1] = Thiophene analogues table, read-out: MIC MRSA
[2] = planktonic, Thiophene analogues table, read-out: MIC E. coli Plank
[3] = Thiophene analogues table, read-out: MIC C. jejuni
[4] = Thiophene analogues table, read-out: MIC H. pylori
[5] = planktonic, Thiophene analogues table, read-out: MIC S. epidermidis Plank
[6] = broth dilution, Trypticase Soy, 24 h, read-out: MIC (μM) MRSA
[7] = broth dilution, LB medium, 24 h, read-out: MIC (μM) E. coli Plank
[8] = broth dilution, Brain Heart Infusion, 24 h, read-out: MIC (μM) C. jejuni
[9] = broth dilution, Brain Heart Infusion, 24 h, read-out: MIC (μM) H. pylori
[10] = broth dilution, Trypticase Soy, 24 h, read-out: MIC (μM) S. epidermidis Plank
[11] = Furan analogues table, read-out: MIC MRSA
[12] = planktonic, Furan analogues table, read-out: MIC E. coli Plank
[13] = Furan analogues table, read-out: MIC C. jejuni
[14] = Furan analogues table, read-out: MIC H. pylori
[15] = planktonic, Furan analogues table, read-out: MIC S. epidermidis Plank

SMILES | MIC (MRSA; [6]) [µM] | MIC (E. coli; [7]) [µM] | MIC (C. jejuni; [8]) [µM] | MIC (H. pylori; [9]) [µM] | MIC (S. epidermidis; [10]) [µM] | MIC (MRSA; [11]) [µM] | MIC (E. coli; [12]) [µM] | MIC (C. jejuni; [13]) [µM] | MIC (H. pylori; [14]) [µM] | MIC (S. epidermidis; [15]) [µM] | also measured
O=C(Nc1ncc([N+](=O)[O-])s1)c1sccc1Cl [VPC16a1009] |  |  |  |  |  |  |  |  |  |  | MIC (MRSA; [1]): 20.7 µM (≈ 6 µg/mL); MIC (E. coli; [2]): 110.5 µM (≈ 32 µg/mL); MIC (C. jejuni; [3]): 20.7 µM (≈ 6 µg/mL); MIC (H. pylori; [4]): 5.2 µM (≈ 1.51 µg/mL); MIC (S. epidermidis; [5]): 55.2 µM (≈ 16 µg/mL)
O=C(Cc1ccccc1)Nc1ncc([N+](=O)[O-])s1 [VPC16a1013] | 121.5 (≈ 32 µg/mL) | 121.5 (≈ 32 µg/mL) | 1.8 (≈ 0.474 µg/mL) | 21.6 (≈ 5.69 µg/mL) | 22.8 (≈ 6 µg/mL) |  |  |  |  |  | 
Cn1cc(C(=O)Nc2ncc([N+](=O)[O-])s2)c2ccccc21 [VPC16a1014] | 105.9 (≈ 32 µg/mL) | 105.9 (≈ 32 µg/mL) | 19.9 (≈ 6.02 µg/mL) | 1.2 (≈ 0.363 µg/mL) | 5.0 (≈ 1.51 µg/mL) |  |  |  |  |  | 
O=C(Nc1ncc([N+](=O)[O-])s1)c1ccncc1F [VPC16a1053] | 119.3 (≈ 32 µg/mL) | 119.3 (≈ 32 µg/mL) | 14.9 (≈ 4 µg/mL) | 3.7 (≈ 0.992 µg/mL) | 119.3 (≈ 32 µg/mL) |  |  |  |  |  | 
Cc1ccccc1-c1ccc(C(=O)Nc2ncc([N+](=O)[O-])s2)o1 [VPC16a1103] |  |  |  |  |  | 12.1 (≈ 3.98 µg/mL) | 97.2 (≈ 32 µg/mL) | 24.3 (≈ 8 µg/mL) | 3.8 (≈ 1.25 µg/mL) | 12.1 (≈ 3.98 µg/mL) | 
O=C(Nc1ncc([N+](=O)[O-])s1)c1ccc(F)cc1F [VPC16b1009] | 28.0 (≈ 7.99 µg/mL) | 112.2 (≈ 32 µg/mL) | 7.0 (≈ 2 µg/mL) | 0.4 (≈ 0.114 µg/mL) | 42.1 (≈ 12 µg/mL) |  |  |  |  |  | 
O=C(Nc1ncc([N+](=O)[O-])s1)c1c(F)cccc1F [VPC16b1010] | 28.0 (≈ 7.99 µg/mL) | 112.2 (≈ 32 µg/mL) | 14.0 (≈ 3.99 µg/mL) | 0.7 (≈ 0.2 µg/mL) | 28.0 (≈ 7.99 µg/mL) |  |  |  |  |  | 
O=C(Nc1ncc([N+](=O)[O-])s1)c1cc(F)c(F)cc1F [VPC16b1012] | 33.0 (≈ 10 µg/mL) | 105.5 (≈ 32 µg/mL) | 9.9 (≈ 3 µg/mL) | 0.8 (≈ 0.243 µg/mL) | 33.0 (≈ 10 µg/mL) |  |  |  |  |  | 
O=C(Nc1ncc([N+](=O)[O-])s1)c1cc(F)c(F)c(F)c1 [VPC16b1014] | 29.7 (≈ 9.01 µg/mL) | 105.5 (≈ 32 µg/mL) | 4.9 (≈ 1.49 µg/mL) | 1.2 (≈ 0.364 µg/mL) | 66.0 (≈ 20 µg/mL) |  |  |  |  |  | 
O=C(Nc1ncc([N+](=O)[O-])s1)c1ccc(F)c(F)c1 [VPC16b1019] | 10.5 (≈ 2.99 µg/mL) | 84.1 (≈ 24 µg/mL) | 5.3 (≈ 1.51 µg/mL) | 1.8 (≈ 0.513 µg/mL) | 28.0 (≈ 7.99 µg/mL) |  |  |  |  |  | 
Cn1c(C(=O)Nc2ncc([N+](=O)[O-])s2)cc2ccccc21 [VPC16b1028] | 105.9 (≈ 32 µg/mL) | 105.9 (≈ 32 µg/mL) | 39.7 (≈ 12 µg/mL) | 1.2 (≈ 0.363 µg/mL) | 105.9 (≈ 32 µg/mL) |  |  |  |  |  | 
O=C(Nc1ncc([N+](=O)[O-])s1)C1CC1c1ccccc1 (stereo not drawn) [VPC16b1032] | 13.8 (≈ 3.99 µg/mL) | 110.6 (≈ 32 µg/mL) | 26.6 (≈ 7.7 µg/mL) | 1.7 (≈ 0.492 µg/mL) | 13.8 (≈ 3.99 µg/mL) |  |  |  |  |  | 
O=C(Nc1ncc([N+](=O)[O-])s1)c1ccc(-c2cccc(F)c2)o1 [VPC16b1115] |  |  |  |  |  | 24.0 (≈ 8 µg/mL) | 96.0 (≈ 32 µg/mL) | 24.0 (≈ 8 µg/mL) | 1.5 (≈ 0.5 µg/mL) | 12.0 (≈ 4 µg/mL) | 
O=C(Nc1ncc([N+](=O)[O-])s1)c1ccc(-c2ccccc2Cl)o1 [VPC16b1118] |  |  |  |  |  | 11.4 (≈ 3.99 µg/mL) | 91.5 (≈ 32 µg/mL) | 11.4 (≈ 3.99 µg/mL) | 1.4 (≈ 0.49 µg/mL) | 5.7 (≈ 1.99 µg/mL) | 
O=C(Nc1ncc([N+](=O)[O-])s1)c1ccc(-c2cccc(Cl)c2)o1 [VPC16b1119] |  |  |  |  |  | 91.5 (≈ 32 µg/mL) | 91.5 (≈ 32 µg/mL) | 22.9 (≈ 8.01 µg/mL) | 1.1 (≈ 0.385 µg/mL) | 91.5 (≈ 32 µg/mL) | 
O=C(Nc1ncc([N+](=O)[O-])s1)c1ccc(-c2ccc3c(c2)OCO3)o1 [VPC16b1132] |  |  |  |  |  | 89.1 (≈ 32 µg/mL) | 89.1 (≈ 32 µg/mL) | 89.1 (≈ 32 µg/mL) | 1.4 (≈ 0.503 µg/mL) | 89.1 (≈ 32 µg/mL) | 
COc1ccc(-c2ccc(C(=O)Nc3ncc([N+](=O)[O-])s3)o2)cc1 [VPC16b1139] |  |  |  |  |  | 92.7 (≈ 32 µg/mL) | 92.7 (≈ 32 µg/mL) | 92.7 (≈ 32 µg/mL) | 1.5 (≈ 0.518 µg/mL) | 92.7 (≈ 32 µg/mL) | 
O=C(Nc1ncc([N+](=O)[O-])s1)c1ccc(-c2ccoc2)o1 [VPC16b1142] |  |  |  |  |  | 26.2 (≈ 8 µg/mL) | 104.8 (≈ 32 µg/mL) | 13.1 (≈ 4 µg/mL) | 1.6 (≈ 0.488 µg/mL) | 13.1 (≈ 4 µg/mL) | 
O=C(Nc1ncc([N+](=O)[O-])s1)c1ccc(-c2cccs2)o1 [VPC16b1145, N-(5-Nitrothiazol-2-yl)-5-(thiophen-2-yl)furan-2-carboxamide] |  |  |  |  |  |  |  |  |  |  | MIC (MRSA; Staphylococcus aureus, MRSA, Furan analogues table, read-out: MIC MRSA): 12.4 µM (≈ 3.98 µg/mL); MIC (E. coli; Escherichia coli, planktonic, Furan analogues table, read-out: MIC E. coli Plank): 99.6 µM (≈ 32 µg/mL); MIC (C. jejuni; Campylobacter jejuni, Furan analogues table, read-out: MIC C. jejuni): 12.5 µM (≈ 4.02 µg/mL); MIC (H. pylori; Helicobacter pylori, Furan analogues table, read-out: MIC H. pylori): 1.9 µM (≈ 0.611 µg/mL); MIC (S. epidermidis; Staphylococcus epidermidis, planktonic, Furan analogues table, read-out: MIC S. epidermidis Plank): 12.4 µM (≈ 3.98 µg/mL)
O=C(Nc1ncc([N+](=O)[O-])s1)c1ccc(-c2ccco2)s1 [VPC16b1148] |  |  |  |  |  |  |  |  |  |  | MIC (MRSA; [1]): 24.9 µM (≈ 8 µg/mL); MIC (E. coli; [2]): 99.6 µM (≈ 32 µg/mL); MIC (C. jejuni; [3]): 12.4 µM (≈ 3.98 µg/mL); MIC (H. pylori; [4]): 7.8 µM (≈ 2.51 µg/mL); MIC (S. epidermidis; [5]): 12.4 µM (≈ 3.98 µg/mL)
O=C(Nc1ncc([N+](=O)[O-])s1)c1ccc(-c2ccsc2)s1 [VPC16b1154] |  |  |  |  |  |  |  |  |  |  | MIC (MRSA; [1]): 94.8 µM (≈ 32 µg/mL); MIC (E. coli; [2]): 94.8 µM (≈ 32 µg/mL); MIC (C. jejuni; [3]): 94.8 µM (≈ 32 µg/mL); MIC (H. pylori; [4]): 3.0 µM (≈ 1.01 µg/mL); MIC (S. epidermidis; [5]): 94.8 µM (≈ 32 µg/mL)
Cc1cccc(-c2ccc(C(=O)Nc3ncc([N+](=O)[O-])s3)s2)c1 [VPC16b2011] |  |  |  |  |  |  |  |  |  |  | MIC (MRSA; [1]): 92.6 µM (≈ 32 µg/mL); MIC (E. coli; [2]): 92.6 µM (≈ 32 µg/mL); MIC (C. jejuni; [3]): 92.6 µM (≈ 32 µg/mL); MIC (H. pylori; [4]): 2.2 µM (≈ 0.76 µg/mL); MIC (S. epidermidis; [5]): 92.6 µM (≈ 32 µg/mL)
Cc1cccc(-c2ccc(C(=O)Nc3ncc([N+](=O)[O-])s3)o2)c1 [VPC16b2014] |  |  |  |  |  | 97.2 (≈ 32 µg/mL) | 97.2 (≈ 32 µg/mL) | 97.2 (≈ 32 µg/mL) | 2.3 (≈ 0.757 µg/mL) | 97.2 (≈ 32 µg/mL) | 
Cc1ccc(-c2ccc(C(=O)Nc3ncc([N+](=O)[O-])s3)o2)cc1 [VPC16b2019] |  |  |  |  |  | 97.2 (≈ 32 µg/mL) | 97.2 (≈ 32 µg/mL) | 97.2 (≈ 32 µg/mL) | 1.5 (≈ 0.494 µg/mL) | 97.2 (≈ 32 µg/mL) | 
O=C(Nc1ncc([N+](=O)[O-])s1)c1ccc(-c2cccs2)s1 [VPC16b2021] |  |  |  |  |  |  |  |  |  |  | MIC (MRSA; [1]): 94.8 µM (≈ 32 µg/mL); MIC (E. coli; [2]): 94.8 µM (≈ 32 µg/mL); MIC (C. jejuni; [3]): 94.8 µM (≈ 32 µg/mL); MIC (H. pylori; [4]): 3.0 µM (≈ 1.01 µg/mL); MIC (S. epidermidis; [5]): 94.8 µM (≈ 32 µg/mL)
O=C(Nc1ncc([N+](=O)[O-])s1)c1ccc(-c2ccsc2)o1 [VPC16b2022] |  |  |  |  |  | 99.6 (≈ 32 µg/mL) | 99.6 (≈ 32 µg/mL) | 99.6 (≈ 32 µg/mL) | 6.2 (≈ 1.99 µg/mL) | 99.6 (≈ 32 µg/mL) | 
O=C(Nc1ncc([N+](=O)[O-])s1)c1ccc(-c2ccccc2)o1 [VPC16c1020] |  |  |  |  |  | 101.5 (≈ 32 µg/mL) | 101.5 (≈ 32 µg/mL) | 101.5 (≈ 32 µg/mL) | 2.4 (≈ 0.757 µg/mL) | 101.5 (≈ 32 µg/mL) | 
